Measured values from PubChem BioAssay AID256 (DTP/NCI, 2004).
Inconclusive results and toxic doses are left out.

Tested on: CD2F1 mice, L1210 leukemia ip, survival T/C
Test: NCI In Vivo Anticancer Drug Screen. Data for tumor model L1210 Leukemia (intraperitoneal) in CD2F1 (CDF1) mice
Conditions: higher = longer survival
Outline: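 Transplantable tumor in mice; compound-treated vs vehicle-treated groups. Read-out = treated/control ratio of the measured endpoint.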

[1] = endpoint: mean survival time, dose: 100.0 mg/kg/injection, schedule: Q04DX003 (ip), vehicle: Klucel (hydroxypropylcellulose) (HPC)
[2] = endpoint: mean survival time, dose: 200.0 mg/kg/injection, schedule: Q04DX003 (ip), vehicle: Klucel (hydroxypropylcellulose) (HPC)

CCC(C(=O)O)C(=O)O.[NH-]CC1CCCC[N-]1.[Pt+2]
T/C (endpoint: mean survival time, dose: 3.13 mg/kg/injection, schedule: Q04DX003 (ip), vehicle: saline): 98 % of control | T/C (endpoint: mean survival time, dose: 25.0 mg/kg/injection, schedule: Q04DX003 (ip), vehicle: saline): 115 % of control | T/C (endpoint: mean survival time, dose: 50.0 mg/kg/injection, schedule: Q04DX003 (ip), vehicle: saline): 124 % of control | T/C (endpoint: median survival time, dose: 200.0 mg/kg/injection, schedule: Q04DX003 (ip), vehicle: distilled water + Tween-80): 103 % of control

CCOC(=O)Nc1cc(Nc2ccccc2)c(N)c(N)n1
T/C (endpoint: mean survival time, dose: 100.0 mg/kg/injection, schedule: Q01DX001 (ip), vehicle: saline): 88 % of control | T/C (endpoint: mean survival time, dose: 200.0 mg/kg/injection, schedule: Q01DX001 (ip), vehicle: saline): 94 % of control

CCCC1C(=O)N2C(N(C)C)=Nc3ccc(C)cc3N2C1=O (stereo not drawn)
T/C (endpoint: mean survival time, dose: 100.0 mg/kg/injection, schedule: Q04DX003 (ip), vehicle: saline with Tween-80): 94 % of control | T/C (endpoint: mean survival time, dose: 200.0 mg/kg/injection, schedule: Q04DX003 (ip), vehicle: saline with Tween-80): 96 % of control | T/C (endpoint: mean survival time, dose: 400.0 mg/kg/injection, schedule: Q04DX003 (ip), vehicle: saline with Tween-80): 96 % of control

CCCCCCCCC[n+]1ccc(C(N)=O)cc1
T/C (endpoint: mean survival time, dose: 25.0 mg/kg/injection, schedule: Q01DX009 (ip), vehicle: saline with Tween-80): 103 % of control | T/C (endpoint: mean survival time, dose: 50.0 mg/kg/injection, schedule: Q01DX009 (ip), vehicle: saline with Tween-80): 95 % of control | T/C (endpoint: mean survival time, dose: 100.0 mg/kg/injection, schedule: Q01DX009 (ip), vehicle: saline with Tween-80): 95 % of control

CC(=O)NC(CCc1ccc(Cl)c(Cl)c1)c1cccc(O)c(=O)c1 (stereo not drawn)
T/C (endpoint: median survival time, dose: 3.12 mg/kg/injection, schedule: Q01DX009 (ip), vehicle: Klucel (hydroxypropylcellulose) (HPC)): 94 % of control | T/C (endpoint: median survival time, dose: 6.25 mg/kg/injection, schedule: Q01DX009 (ip), vehicle: Klucel (hydroxypropylcellulose) (HPC)): 100 % of control | T/C (endpoint: median survival time, dose: 12.5 mg/kg/injection, schedule: Q01DX009 (ip), vehicle: Klucel (hydroxypropylcellulose) (HPC)): 106 % of control | T/C (endpoint: median survival time, dose: 25.0 mg/kg/injection, schedule: Q01DX009 (ip), vehicle: Klucel (hydroxypropylcellulose) (HPC)): 102 % of control | T/C (endpoint: median survival time, dose: 50.0 mg/kg/injection, schedule: Q01DX009 (ip), vehicle: Klucel (hydroxypropylcellulose) (HPC)): 103 % of control | T/C (endpoint: median survival time, dose: 100.0 mg/kg/injection, schedule: Q01DX009 (ip), vehicle: Klucel (hydroxypropylcellulose) (HPC)): 116 % of control

c1ccc(N/N=C(/C[n+]2cc3ccccc3c3ccccc32)c2ccccc2)cc1
T/C [1]: 94 % of control | T/C [2]: 106 % of control | T/C (endpoint: mean survival time, dose: 400.0 mg/kg/injection, schedule: Q04DX003 (ip), vehicle: Klucel (hydroxypropylcellulose) (HPC)): 109 % of control

CC(C)(C)[CH2][Sn]([Cl])([CH2]C(C)(C)C)[CH2]C(C)(C)C
T/C (endpoint: mean survival time, dose: 3.13 mg/kg/injection, schedule: Q04DX002 (ip), vehicle: saline with Tween-80): 97 % of control | T/C (endpoint: mean survival time, dose: 6.25 mg/kg/injection, schedule: Q04DX002 (ip), vehicle: saline with Tween-80): 101 % of control | T/C (endpoint: mean survival time, dose: 12.5 mg/kg/injection, schedule: Q04DX002 (ip), vehicle: saline with Tween-80): 103 % of control

CN(C(=O)N(CCCl)N=O)C1CCCCC1
T/C (endpoint: mean survival time, dose: 16.0 mg/kg/injection, schedule: Q01DX001 (ip), vehicle: saline with Tween-80): 96 % of control | T/C (endpoint: mean survival time, dose: 24.0 mg/kg/injection, schedule: Q01DX001 (ip), vehicle: saline with Tween-80): 98 % of control | T/C (endpoint: mean survival time, dose: 36.0 mg/kg/injection, schedule: Q01DX001 (ip), vehicle: saline with Tween-80): 108 % of control | T/C (endpoint: mean survival time, dose: 54.0 mg/kg/injection, schedule: Q01DX001 (ip), vehicle: saline with Tween-80): 110 % of control | T/C (endpoint: mean survival time, dose: 80.0 mg/kg/injection, schedule: Q01DX001 (ip), vehicle: saline with Tween-80): 123 % of control | T/C (endpoint: mean survival time, dose: 180.0 mg/kg/injection, schedule: Q01DX001 (ip), vehicle: saline with Tween-80): 236 % of control | T/C (endpoint: mean survival time, dose: 268.0 mg/kg/injection, schedule: Q01DX001 (ip), vehicle: saline with Tween-80): 396 % of control | T/C (endpoint: mean survival time, dose: 400.0 mg/kg/injection, schedule: Q01DX001 (ip), vehicle: saline with Tween-80): 353 % of control

CC(=O)C1CCC2C3CC=C4CC(n5cc(F)c(=O)[nH]c5=O)CCC4(C)C3CCC12C (stereo not drawn)
T/C (endpoint: mean survival time, dose: 12.5 mg/kg/injection, schedule: Q04DX003 (ip), vehicle: Klucel (hydroxypropylcellulose) (HPC)): 97 % of control | T/C (endpoint: mean survival time, dose: 25.0 mg/kg/injection, schedule: Q04DX003 (ip), vehicle: Klucel (hydroxypropylcellulose) (HPC)): 101 % of control | T/C (endpoint: mean survival time, dose: 50.0 mg/kg/injection, schedule: Q04DX003 (ip), vehicle: Klucel (hydroxypropylcellulose) (HPC)): 97 % of control | T/C [1]: 98 % of control | T/C [2]: 91 % of control

c1ccc(CN2CCc3cc4c(cc3C2)OCO4)cc1
T/C (endpoint: mean survival time, dose: 37.5 mg/kg/injection, schedule: Q01DX001 (ip), vehicle: saline): 102 % of control | T/C (endpoint: mean survival time, dose: 75.0 mg/kg/injection, schedule: Q01DX001 (ip), vehicle: saline): 102 % of control | T/C (endpoint: mean survival time, dose: 150.0 mg/kg/injection, schedule: Q01DX001 (ip), vehicle: saline): 90 % of control

O=C(OCC1OC(n2ccn(C3OC(COC(=O)c4ccccc4)C(OC(=O)c4ccccc4)C3OC(=O)c3ccccc3)c2=S)C(OC(=O)c2ccccc2)C1OC(=O)c1ccccc1)c1ccccc1 (stereo not drawn)
T/C (endpoint: mean survival time, dose: 12.5 mg/kg/injection, schedule: Q01DX005 (ip), vehicle: water): 102 % of control | T/C (endpoint: mean survival time, dose: 25.0 mg/kg/injection, schedule: Q01DX005 (ip), vehicle: water): 104 % of control | T/C (endpoint: mean survival time, dose: 50.0 mg/kg/injection, schedule: Q01DX005 (ip), vehicle: water): 94 % of control | T/C (endpoint: mean survival time, dose: 100.0 mg/kg/injection, schedule: Q01DX005 (ip), vehicle: water): 94 % of control | T/C (endpoint: mean survival time, dose: 200.0 mg/kg/injection, schedule: Q01DX005 (ip), vehicle: water): 94 % of control

O=C1C=CC(=O)N1Cc1ccco1
T/C (endpoint: mean survival time, dose: 100.0 mg/kg/injection, schedule: Q04DX003 (ip), vehicle: saline): 102 % of control | T/C (endpoint: mean survival time, dose: 200.0 mg/kg/injection, schedule: Q04DX003 (ip), vehicle: saline): 95 % of control | T/C (endpoint: mean survival time, dose: 400.0 mg/kg/injection, schedule: Q04DX003 (ip), vehicle: saline): 90 % of control
